Values joined by “and” are separate entries in the source; they are usually repeats but may differ in a detail not shown here. Identical values can stand only once. Counter-ions that a name gives are not always drawn. Like-named read-outs stand apart in the source and are kept apart here.
Columns and labels:
Assay type in all cases: in vivo, mouse
[1] = test system: [3H]-ADMA transport across the blood-brain and blood-CSF barriers; assay: cross-inhibition, in situ perfusion: [^3H]-ADMA with 100 μM unlabelled L-arginine; set-up: uptake into choroid plexus / uptake into frontal cortex / uptake into caudate nucleus / uptake into occipital cortex / uptake into hippocampus / uptake into hypothalamus / uptake into thalamus / uptake into cerebellum: unit not given here; conditions: male, Balb/c, mouse, other: in situ brain perfusion, 10 mins, Balb/c ♂, 5ml/min
Description: (§1) Self-inhibition experiments were also performed. […] Cross-competition experiments were also performed.
(§2) The percentage change in the RTissue uptake values achieved in the absence or presence of an unlabelled inhibitor can be calculated by means of Eq 4.
(§3) %change=RTissue−RInhibition/RTissue×100 Eq 4
(§4) We define RInhibition as the RTissue uptake in the presence of an inhibitor in the artificial plasma.
(§5) A decrease in the uptake of radiolabelled solute in the presence of unlabelled inhibitor is indicative of a saturable influx transport system. Conversely, an increase in the uptake of radiolabelled solute in the presence of unlabelled inhibitor is indicative of a saturable efflux transport system.

[2] = test system: [^3H]-ADMA transport across the blood-brain and blood-CSF barriers; assay: as above; set-up: uptake into choroid plexus / uptake into frontal cortex / uptake into caudate nucleus / uptake into occipital cortex / uptake into hippocampus / uptake into hypothalamus / uptake into thalamus / uptake into cerebellum: unit not given here; conditions: [3H] ADMA + [14C] Sucrose + 100uM Arg, 10 mins, Balb/c ♂, 5ml/min; individual mice
Description: as §1, §2, §3, §4, §5

[3] = as above; set-up: uptake into choroid plexus / uptake into frontal cortex / uptake into caudate nucleus / uptake into occipital cortex / uptake into hippocampus / uptake into hypothalamus / uptake into thalamus / uptake into cerebellum: unit not given here; conditions: male, Balb/c, mouse, other: in situ brain perfusion, with 100 µM unlabelled L-arginine, 10 mins, Balb/c ♂, 5ml/min
Description: as §1, §2, §3, §4, §5

[4] = test system: [3H]-ADMA transport across the blood-brain and blood-CSF barriers; assay: self-inhibition, in situ perfusion: [^3H]-ADMA with 100 μM unlabelled ADMA; conditions: male, Balb/c, mouse, other: in situ brain perfusion, with unlabelled ADMA 100 µM, 10 mins, Balb/c ♂, 5ml/min
Description: as §1, §2, §3, §4, §5

With `CN(C)C(N)=NCCC[C@H](N)C(=O)O` [ADMA, N^G,N^G-dimethylarginine dihydrochloride] the Kp at 10 min, 62.5 nM ([1]; choroid plexus, with 100 µM unlabelled L-arginine, Difference (ADMA minus Sucrose), choroid plexus, + 100uM Arg, mean) was 0.471, the Kp at 10 min, 62.5 nM ([1]; choroid plexus, with 100 µM unlabelled L-arginine, [3H] ADMA + [14C] Sucrose + 100uM Arg, individual mice, read-out: uptake into choroid plexus) was 0.609 and the Kp at 10 min, 62.5 nM ([1]; choroid plexus, with 100 µM unlabelled L-arginine, [3H] ADMA + [14C] Sucrose + 100uM Arg, mean, read-out: uptake into choroid plexus) was 0.616. The Kp at 10 min, 62.5 nM ([1]; frontal cortex, with 100 µM unlabelled L-arginine, Difference (ADMA minus Sucrose), frontal cortex, + 100uM Arg, mean) was 0.0598, the Kp at 10 min, 62.5 nM ([1]; frontal cortex, with 100 µM unlabelled L-arginine, [3H] ADMA + [14C] Sucrose + 100uM Arg, mean, read-out: uptake into frontal cortex) was 0.0858 and the Kp at 10 min, 62.5 nM ([1]; hippocampus, with 100 µM unlabelled L-arginine, Difference (ADMA minus Sucrose), hippocampus, + 100uM Arg, mean) was 0.0475. It also gave a Kp at 10 min, 62.5 nM ([1]; hippocampus, with 100 µM unlabelled L-arginine, [3H] ADMA + [14C] Sucrose + 100uM Arg, mean, read-out: uptake into hippocampus) of 0.0608, a Kp at 10 min, 62.5 nM ([1]; hypothalamus, with 100 µM unlabelled L-arginine, Difference (ADMA minus Sucrose), hypothalamus, + 100uM Arg, individual mice) of 0.0699 and a Kp at 10 min, 62.5 nM ([1]; hypothalamus, with 100 µM unlabelled L-arginine, Difference (ADMA minus Sucrose), hypothalamus, + 100uM Arg, mean) of 0.0777. It also gave a Kp at 10 min, 62.5 nM ([1]; hypothalamus, with 100 µM unlabelled L-arginine, [3H] ADMA + [14C] Sucrose + 100uM Arg, individual mice, read-out: uptake into hypothalamus) of 0.105, a Kp at 10 min, 62.5 nM ([1]; hypothalamus, with 100 µM unlabelled L-arginine, [3H] ADMA + [14C] Sucrose + 100uM Arg, mean, read-out: uptake into hypothalamus) of 0.11 and a Kp at 10 min, 62.5 nM ([1]; occipital cortex, with 100 µM unlabelled L-arginine, Difference (ADMA minus Sucrose), occipital cortex, + 100uM Arg, mean) of 0.048. For the same molecule, the Kp at 10 min, 62.5 nM ([1]; occipital cortex, with 100 µM unlabelled L-arginine, [3H] ADMA + [14C] Sucrose + 100uM Arg, mean, read-out: uptake into occipital cortex) was 0.0669, the Kp at 10 min, 62.5 nM ([1]; pineal gland, with unlabelled L-arginine 100 µM, Difference (ADMA minus Sucrose), pineal gland, + 100uM Arg, mean) was 0.613 and the Kp at 10 min, 62.5 nM ([1]; pineal gland, with unlabelled L-arginine 100 µM, [3H] ADMA + [14C] Sucrose + 100uM Arg, mean, read-out: uptake into pineal gland) was 0.915. It also gave a Kp at 10 min, 62.5 nM ([1]; pituitary gland, with 100 µM unlabelled L-arginine, Difference (ADMA minus Sucrose), pituitary gland, + 100uM Arg, mean) of 0.487, a Kp at 10 min, 62.5 nM ([1]; pituitary gland, with 100 µM unlabelled L-arginine, [3H] ADMA + [14C] Sucrose + 100uM Arg, mean, read-out: uptake into pituitary gland) of 0.6 and a Kp at 10 min, 62.5 nM ([1]; pons, with 100 µM unlabelled L-arginine, Difference (ADMA minus Sucrose), pons, + 100uM Arg, mean) of 0.0483. For the same molecule, the Kp at 10 min, 62.5 nM ([1]; pons, with 100 µM unlabelled L-arginine, [3H] ADMA + [14C] Sucrose + 100uM Arg, mean, read-out: uptake into pons) was 0.0946, the Kp at 10 min, 62.5 nM ([1]; thalamus, with 100 µM unlabelled L-arginine, Difference (ADMA minus Sucrose), thalamus, + 100uM Arg, mean) was 0.0566 and the Kp at 10 min, 62.5 nM ([1]; thalamus, with 100 µM unlabelled L-arginine, [3H] ADMA + [14C] Sucrose + 100uM Arg, mean, read-out: uptake into thalamus) was 0.0793. For the same molecule, the “uptake into caudate nucleus” value [2] was 0.06709 and 0.08883 and 0.04583 and 0.07378, the uptake into cerebellum [2] was 0.04812 and 0.06526 and 0.1041 and 0.02606 and 0.09306 and the “uptake into choroid plexus” value [2] was 0.5896 and 0.666 and 0.4457 and 0.7681. The “uptake into frontal cortex” value [2] was 0.07007 and 0.07553 and 0.1227 and 0.05236 and 0.1082, the uptake into hippocampus [2] was 0.04437 and 0.05436 and 0.09956 and 0.03726 and 0.0687 and the uptake into hypothalamus [2] was 0.1376 and 0.1261 and 0.09757 and 0.08557. For the same molecule, the “uptake into occipital cortex” value [2] was 0.04352 and 0.05773 and 0.1002 and 0.05331 and 0.07955, the “uptake into pituitary gland” value [2] was 0.3174 and 0.8724 and 1.123 and 0.09502 and 0.5936 and the uptake into pons [2] was 0.0747 and 0.145 and 0.1344 and 0.05028 and 0.06842. For the same molecule, the uptake into thalamus [2] was 0.04368 and 0.06682 and 0.145 and 0.05879 and 0.08201, the Kp at 10 min, 62.5 nM ([3]; CSF, [3H] ADMA + [14C] Sucrose + 100uM Arg, mean, read-out: uptake into CSF) was 0.162 and the Kp at 10 min, 62.5 nM ([3]; brain homogenate, Difference (ADMA minus Sucrose), homogenate, + 100uM Arg, mean) was 0.0265. For the same molecule, the Kp at 10 min, 62.5 nM ([3]; brain homogenate, [3H] ADMA + [14C] Sucrose + 100uM Arg, mean, read-out: uptake, homogenate) was 0.063, the Kp at 10 min, 62.5 nM ([3]; pellet, Difference (ADMA minus Sucrose), pellet, + 100uM Arg, individual mice) was 0.00309 and the Kp at 10 min, 62.5 nM ([3]; pellet, [3H] ADMA + [14C] Sucrose + 100uM Arg, mean, read-out: uptake, pellet) was 0.011. It also gave a Kp at 10 min, 62.5 nM ([3]; supernatant, Difference (ADMA minus Sucrose), supernatant, + 100uM Arg, mean) of 0.0204, a Kp at 10 min, 62.5 nM ([3]; supernatant, [3H] ADMA + [14C] Sucrose + 100uM Arg, mean, read-out: uptake, supernatant) of 0.0475 and a Kp at 10 min, 62.5 nM ([4]; CSF, Difference (ADMA minus Sucrose), CSF, + 100uM un-labelled ADMA, mean) of 2.01. It also gave a Kp at 10 min, 62.5 nM ([4]; CSF, [3H] ADMA + [14C] Sucrose + 100uM un-labelled ADMA, mean, read-out: uptake into CSF) of 2.15, a Kp at 10 min, 62.5 nM ([4]; cerebellum, Difference (ADMA minus Sucrose), cerebellum, + 100uM un-labelled ADMA, individual mice) of 0.0515 and a Kp at 10 min, 62.5 nM ([4]; cerebellum, Difference (ADMA minus Sucrose), cerebellum, + 100uM un-labelled ADMA, mean) of 0.0701. It also gave a Kp at 10 min, 62.5 nM ([4]; cerebellum, [3H] ADMA + [14C] Sucrose + 100uM un-labelled ADMA, individual mice, read-out: uptake into cerebellum) of 0.09, a Kp at 10 min, 62.5 nM ([4]; cerebellum, [3H] ADMA + [14C] Sucrose + 100uM un-labelled ADMA, mean, read-out: uptake into cerebellum) of 0.121 and a Kp at 10 min, 62.5 nM ([4]; homogenate, Difference (ADMA minus Sucrose), homogenate, + 100uM un-labelled ADMA, mean) of 0.0396. For the same molecule, the Kp at 10 min, 62.5 nM ([4]; homogenate, [3H] ADMA + [14C] Sucrose + 100uM un-labelled ADMA, individual mice, read-out: uptake, homogenate) was 0.0686, the Kp at 10 min, 62.5 nM ([4]; homogenate, [3H] ADMA + [14C] Sucrose + 100uM un-labelled ADMA, mean, read-out: uptake, homogenate) was 0.0884 and the Kp at 10 min, 62.5 nM ([4]; hypothalamus, Difference (ADMA minus Sucrose), hypothalamus, + 100uM un-labelled ADMA, mean) was 0.0972. The Kp at 10 min, 62.5 nM ([4]; hypothalamus, [3H] ADMA + [14C] Sucrose + 100uM un-labelled ADMA, mean, read-out: uptake into hypothalamus) was 0.146, the Kp at 10 min, 62.5 nM ([4]; pellet, Difference (ADMA minus Sucrose), pellet, + 100uM un-labelled ADMA, individual mice) was 0.01 and the Kp at 10 min, 62.5 nM ([4]; pellet, [3H] ADMA + [14C] Sucrose + 100uM un-labelled ADMA, individual mice, read-out: uptake, pellet) was 0.0144. For the same molecule, the Kp at 10 min, 62.5 nM ([4]; pellet, [3H] ADMA + [14C] Sucrose + 100uM un-labelled ADMA, mean, read-out: uptake, pellet) was 0.0179, the Kp at 10 min, 62.5 nM ([4]; pituitary gland, Difference (ADMA minus Sucrose), pituitary gland, + 100uM un-labelled ADMA, mean) was 0.586 and the Kp at 10 min, 62.5 nM ([4]; pituitary gland, [3H] ADMA + [14C] Sucrose + 100uM un-labelled ADMA, mean, read-out: uptake into pituitary gland) was 0.681. For the same molecule, the Kp at 10 min, 62.5 nM ([4]; pons, Difference (ADMA minus Sucrose), pons, + 100uM un-labelled ADMA, mean) was 0.0724, the Kp at 10 min, 62.5 nM ([4]; pons, [3H] ADMA + [14C] Sucrose + 100uM un-labelled ADMA, individual mice, read-out: uptake into pons) was 0.102 and the Kp at 10 min, 62.5 nM ([4]; pons, [3H] ADMA + [14C] Sucrose + 100uM un-labelled ADMA, mean, read-out: uptake into pons) was 0.127. For the same molecule, the Kp at 10 min, 62.5 nM ([4]; supernatant, Difference (ADMA minus Sucrose), supernatant, + 100uM un-labelled ADMA, mean) was 0.0316, the Kp at 10 min, 62.5 nM ([4]; supernatant, [3H] ADMA + [14C] Sucrose + 100uM un-labelled ADMA, individual mice, read-out: uptake, supernatant) was 0.047 and the Kp at 10 min, 62.5 nM ([4]; supernatant, [3H] ADMA + [14C] Sucrose + 100uM un-labelled ADMA, mean, read-out: uptake, supernatant) was 0.0703. For the same molecule, the Kp at 10 min, 62.5 nM ([4]; thalamus, Difference (ADMA minus Sucrose), thalamus, + 100uM un-labelled ADMA, mean) was 0.0727, the Kp at 10 min, 62.5 nM ([4]; thalamus, [3H] ADMA + [14C] Sucrose + 100uM un-labelled ADMA, individual mice, read-out: uptake into thalamus) was 0.077 and the Kp at 10 min, 62.5 nM ([4]; thalamus, [3H] ADMA + [14C] Sucrose + 100uM un-labelled ADMA, mean, read-out: uptake into thalamus) was 0.117.

From PMC11501026, “L-Arginine and asymmetric dimethylarginine (ADMA) transport across the mouse blood-brain and blood-CSF barriers: Evidence of saturable transport at both interfaces and CNS to blood efflux” (PLOS ONE, 2024)
